# From patent US5001141A, “N-(2-(2-oxo-1-imidazolidinyl)ethyl)-3-phenyl-urea and analogs as agents for induction of antioxidant enzymes” (E. I. Du Pont de Nemours and Company, priority 1989, dated 1991)
# Assays:
# [1] = LDH release from Gin-1 cells as index of cytotoxicity; assay type: cell-based, human; settings: human, % of total LDH released by 0.4% Triton X, mean ± SEM
# Procedure: (§1) Two different cell types, human gingival fibroblasts (Gin-1) and bovine aortic endothelial cells (CPA ATCl CCL207) were obtained from the American Type Culture Collection. They were incubated until confluent in Dulbecco's modified Eagles medium, supplemented with 2 mM glutamine and 10% heat-inactivated fetal calf serum at 37° C. in a humidified chamber with 5% CO2 in air. Compounds were dissolved in DMSO, diluted to 100 mM with distilled deionized H2 O, and further diluted with Dulbecco's medium (without fetal bovine serum), to desired concentrations. The usual time of incubation with the compounds of this invention was 24 hr at 37° C. in a humidified incubator with 5% CO2 in air. Lactic dehydrogenase (LDH) release was determined in several in vitro preparations as an index of cytotoxicity. using Sigma Diagnostic Kit #500. LDH release was expressed as a percentage of total LDH activity released from cells treated with 0.4% Triton X [Cabaud, P. G., Wroblewski, F. Am. J. Clin. Pathol. 30:234-236, (1958)].
# Gin-1 cells = experiment: as above; assay type: cell-based, human
# Procedure: as §1
# [2] = test system: glutathione peroxidase (GSH-PX); experiment: Glutathione peroxidase activity in Gin-1 human gingival fibroblasts; assay type: cell-based; settings: Gin-1 cells
# Procedure: (§2) 1. In vitro Administration of compounds of Examples 1 or 2 (Compound 1 and Compound 2, respectively).
# as §1
# (§3) Prior to the enzymatic assays the Gin-1 cells and aortic endothelial cells were prepared as follows: cells were rinsed several times with phosphate buffered saline without Ca^+2 or Mg^+2, removed from the culture flasks with 0.25% trypsin, counted using a hemocytometer, and resuspended at 2-3×10^6 cells/ml in Dulbecco's medium without fetal calf serum. Cells were then disrupted by pulse sonication and centrifuged at 100,000 xg at 4° C. Total protein [Bradford, M. M., Anal. Biochem 72:248-254, (1976)] and enzyme activities were determined on the cell sonicates, using standard techniques, SOD activity was determined using the method of McCord and Fridovich [McCord, J., Fridovich I., J. Biol. Chem. 244:6049-6055, (1969)]. Catalase activity was measured using the method of Beers and Sizer [Beers, R. F., Sizer, I. W., J. Biol. Chem. 195:133-146, (1952)]. Glutathione peroxidase activity was determined by the method of Guenzler et al. [Guenzler, W. A., Kremers, H., Flohe, L., Z. Klin. Chem. Klin. Biochem. 12:444-448 (1974)].
# (§4) All enzyme activities were expressed as units of activity per mg protein. The data were compared by Student's t test [Snedecor, W. G., Statistical Methods, p. 45, (1964)]. The level of significance was taken as p<0.05.
# catalase (CAT) [3] = experiment: Catalase activity in bovine aortic endothelial cells; assay type: cell-based; settings: for CAT activity: n = 6, mean ± SEM
# Procedure: as §2, §1, §3, §4
# catalase (CAT) [4] = experiment: Catalase activity in Gin-1 human gingival fibroblasts; assay type: cell-based; settings: Gin-1 cells; for CAT % Increase: vs untreated
# Procedure: as §2, §1, §3, §4
# [5] = test system: superoxide dismutase (SOD); experiment: SOD activity in rat heart, liver and lung after in vivo treatment
# Procedure: Male Lewis rats (250 g) were injected with 0.9% saline (controls) or Compound 1 (100 mg/kg) intraperitoneally twice a day for two days. Heart, liver and lungs were removed en bloc, dissected free of extraneous tissue, and blotted dry to remove contaminating blood. A portion of each tissue (approximately 0.5 g) was homogenized, and centrifuged at 500 xg for 10 minutes at 4° C. A 2 ml aliquot of supernatant was removed and centrifuged at 25,000 xg for 30 minutes. The supernatants were then decanted, and analyzed for SOD and CAT activities and total protein as described above.
# as §4
# [6] = test system: superoxide dismutase (SOD); experiment: SOD activity in Gin-1 human gingival fibroblasts; assay type: cell-based; settings: Gin-1 cells; for SOD % Increase: vs untreated
# Procedure: as §2, §1, §3, §4
# [7] = test system: superoxide dismutase (SOD); experiment: SOD activity in bovine aortic endothelial cells; assay type: cell-based; settings: for SOD activity: n = 10, mean ± SEM, * P < 0.05 vs 0 mM
# Procedure: as §2, §1, §3, §4
# [8] = test system: glutathione peroxidase (GSH-PX); experiment: Glutathione peroxidase activity in bovine aortic endothelial cells; assay type: cell-based; settings: for GSH-PX activity: n = 6, mean ± SEM
# Procedure: as §2, §1, §3, §4
# [9] = test system: polymorphonuclear leukocyte infiltration into ozone-exposed rat lungs; settings: Bassett et al. 1988; cited from earlier work
# [10] = test system: superoxide dismutase (SOD) and catalase (CAT); experiment: Induction of antioxidant enzymes SOD and CAT in mammalian cells and in organs of rats; settings: Gin-1 cells, 1.0 mM, 24 hours; either SOD or CAT, or both enzymes
# Procedure: as §2, §1
# as §3, with “Cells were then disrupted by pulse sonication and centrifuged at 100,000 xg at 4° C.” left out, “Chem. Klin. Biochem. 12:444-448 (1974)].” left out
# All enzyme activities were expressed as units of activity per mg protein. […]
# [11] = Compound 2, at one or more concentrations
smiles,measurement,setting,value
"O=C(NCCN1CCNC1=O)Nc1ccccc1 [Compound 1, 1-[2-(2-oxo-1-imidazolidinyl)ethyl]-3-phenylurea]","cytotoxicity at 24 h, 125 µM",[1]; 0.125 mM,7 ± 2%
same,"cytotoxicity at 24 h, 1000 µM",[1]; 1.0 mM,8 ± 2%
same,Cytotoxicity as shown by LDH release (in words),Gin-1 cells,no indication of cytotoxicity
same,GSH-PX activity (in words),[2],remained constant
same,GSH-PX activity,"[2]; 0.125 mM, n=6, mean ± SEM",52.1 ± 4.7 U/mg Protein
same,GSH-PX activity,"[2]; 0.25 mM, n=6, mean ± SEM",45.8 ± 3.5 U/mg Protein
same,GSH-PX activity,"[2]; 1.0 mM, n=6, mean ± SEM",45.1 ± 5.3 U/mg Protein
same,GSH-PX activity,"[2]; 2.0 mM, n=6, mean ± SEM",47.8 ± 3.8 U/mg Protein
same,CAT activity,catalase (CAT) [3]; 0.05 mM (so in the source),27.1 ± 3.3 U/mg Protein
same,CAT activity,catalase (CAT) [3]; 0.25 mM,25.7 ± 3.6 U/mg Protein
same,CAT activity,"catalase (CAT) [3]; 1.0 mM, * P < 0.05 vs 0 mM",31.9 ± 2.4 U/mg Protein
same,Catalase activity (in words),catalase (CAT) [3]; highest concentration (1 mM) only,significantly increased at the highest concentration (1 mM) only
same,CAT activity,"catalase (CAT) [4]; 0.125 mM, n=4, mean ± SEM, * P < 0.05 vs 0 mM",9.1 ± 1.1 U/mg Protein
same,CAT activity,"catalase (CAT) [4]; 0.25 mM, n=4, mean ± SEM, * P < 0.05 vs 0 mM",10.0 ± 1.8 U/mg Protein
same,CAT activity,"catalase (CAT) [4]; 1.0 mM, n=4, mean ± SEM, * P < 0.05 vs 0 mM",11.2 ± 2.0 U/mg Protein
same,CAT activity,"catalase (CAT) [4]; 2.0 mM, n=4, mean ± SEM, * P < 0.05 vs 0 mM",13.9 ± 1.6 U/mg Protein
same,CAT activity compared with controls (in words),catalase (CAT) [4]; 0.125-2.0 mM Compound 1,significantly increased (P<0.05)
same,"Tissue SOD Activity, Heart","[5]; rat heart, 100 mg/kg i.p. 2 × /day for 2 days, (8), mean ± SEM, * P < 0.05 vs saline control",194 ± 14 U/mg Protein
same,SOD activity in all three tissues (in words),"[5]; rat heart, liver, lung, compared with controls",induced SOD activity in all three tissues studied
same,"Tissue SOD Activity, Liver","[5]; rat liver, 100 mg/kg i.p. 2 × /day for 2 days, (8), mean ± SEM, * P < 0.05 vs saline control",444 ± 68 U/mg Protein
same,"Tissue SOD Activity, Lung","[5]; rat lung, 100 mg/kg i.p. 2 × /day for 2 days, (8), mean ± SEM, * P < 0.05 vs saline control",134 ± 7 U/mg Protein
same,SOD activity,"[6]; 0.125 mM, n=7, mean ± SEM, * P < 0.05 vs 0 mM",13.1 ± 1.5 U/mg Protein
same,SOD activity,"[6]; 0.25 mM, n=7, mean ± SEM, * P < 0.05 vs 0 mM",20.7 ± 3.3 U/mg Protein
same,SOD activity,"[6]; 1.0 mM, n=7, mean ± SEM, * P < 0.05 vs 0 mM",11.6 ± 1.4 U/mg Protein
same,SOD activity,"[6]; 2.0 mM, n=7, mean ± SEM, * P < 0.05 vs 0 mM",13.5 ± 1.7 U/mg Protein
same,SOD activity compared with controls (in words),[6]; 0.125-2.0 mM Compound 1,significantly increased (P<0.05)
same,SOD activity,[7]; 0.05 mM (so in the source),9.5 ± 1.8 U/mg Protein
same,SOD activity,[7]; 0.25 mM,6.7 ± 0.8 U/mg Protein
same,SOD activity,[7]; 1.0 mM,12.2 ± 3.4 U/mg Protein
same,SOD activity (in words),[7]; concentration-dependent,significantly increased (P<0.05) in a concentration-dependent manner
same,GSH-PX activity (in words),[8],not significantly different
same,GSH-PX activity,[8]; 0.05 mM (so in the source),33.5 ± 3.2 U/mg Protein
same,GSH-PX activity,[8]; 0.25 mM,28.1 ± 5.7 U/mg Protein
same,GSH-PX activity,[8]; 1.0 mM,59.8 ± 17 U/mg Protein
same,Polymorphonuclear leukocyte infiltration into ozone-exposed rat lungs,[9],decreased polymorphonuclear leukocyte infiltration
"O=C(NCCN1CCNC1=O)Nc1ccc(F)cc1 [Compound 2, 1-[2-(2-oxo-1-imidazolidinyl)ethyl]-3-(4-fluorophenyl)urea]",GSH-PX activity (in words),[2],remained constant
same,GSH-PX activity,"[2]; Compound 2 table, 0.25 mM, n = 6, mean ± SEM",35.0 ± 1.4 U/mg Protein
same,GSH-PX activity,"[2]; Compound 2 table, 0.50 mM, n = 6, mean ± SEM",40.0 ± 4.7 U/mg Protein
same,GSH-PX activity,"[2]; Compound 2 table, 1.0 mM, n = 6, mean ± SEM",39.1 ± 4 U/mg Protein
same,CAT activity,"catalase (CAT) [4]; 0.25 mM, n=6, mean ± SEM",8.3 ± 0.8 U/mg Protein
same,CAT activity,"catalase (CAT) [4]; 0.50 mM, n = 6, mean ± SEM, * P < 0.05 vs 0 mM",11.4 ± 1.8 U/mg Protein
same,CAT activity,"catalase (CAT) [4]; 1.0 mM, n=6, mean ± SEM",9.5 ± 1.4 U/mg Protein
same,CAT activity (in words),catalase (CAT) [4]; [11],significantly increased (P<0.05) at one or more concentrations
same,SOD activity,"[6]; 0.25 mM, n = 8, mean ± SEM, * P < 0.05 vs 0 mM",15.2 ± 1.6 U/mg Protein
same,SOD activity,"[6]; 0.50 mM, n = 8, mean ± SEM, * P < 0.05 vs 0 mM",15.9 ± 1.7 U/mg Protein
same,SOD activity,"[6]; 1.0 mM, n = 8, mean ± SEM, * P < 0.05 vs 0 mM",14.5 ± 2.2 U/mg Protein
same,SOD activity (in words),[6]; [11],significantly increased (P<0.05) at one or more concentrations
O=C(NCCN1CCNC1=O)Nc1ccc(Cl)cc1 [Example 7],SOD and/or CAT activity (in words),[10],increased
same,CAT activity,"catalase (CAT) [4]; 1.0 mM, 24 hours, Table 5",3.6 ± 0.9 U/mg Protein
same,CAT % Increase,"catalase (CAT) [4]; 1.0 mM, 24 hours",95%
same,SOD activity,"[6]; 1.0 mM, 24 hours, Table 5",5.8 ± 1.2 U/mg Protein
same,SOD % Increase,"[6]; 1.0 mM, 24 hours",51%
O=C(NCCN1CCNC1=S)Nc1ccccc1 [Example 11],SOD and/or CAT activity (in words),[10],increased
same,"Effect on CAT activity, ranking among Ex. 7, 11, 12 (in words)","catalase (CAT) [4]; 1.0 mM, 24 hours",affected CAT the most
same,CAT activity,"catalase (CAT) [4]; 1.0 mM, 24 hours, Table 5",4.1 ± 1.6 U/mg Protein
same,CAT % Increase,"catalase (CAT) [4]; 1.0 mM, 24 hours",118%
same,"Effect on SOD activity, ranking among Ex. 7, 11, 12 (in words)","[6]; 1.0 mM, 24 hours",least effect on SOD activity
same,SOD activity,"[6]; 1.0 mM, 24 hours, Table 5",4.0 ± 0.8 U/mg Protein
same,SOD % Increase,"[6]; 1.0 mM, 24 hours",3%
O=C(Nc1ccccc1)NN1CCCOC1=O [Example 12],SOD and/or CAT activity (in words),[10],increased
same,"Effect on CAT activity, ranking among Ex. 7, 11, 12 (in words)","catalase (CAT) [4]; 1.0 mM, 24 hours",least effect on CAT
same,CAT activity,"catalase (CAT) [4]; 1.0 mM, 24 hours, Table 5",2.5 ± 0.6 U/mg Protein
same,CAT % Increase,"catalase (CAT) [4]; 1.0 mM, 24 hours",35%
same,"Effect on SOD activity, ranking among Ex. 7, 11, 12 (in words)","[6]; 1.0 mM, 24 hours",greatest effect on SOD
same,SOD activity,"[6]; 1.0 mM, 24 hours, Table 5",6.5 ± 0.9 U/mg Protein
same,SOD % Increase,"[6]; 1.0 mM, 24 hours",69%
